Results published in US20230310504A1, “PLATELET MEMBRANE COATED NANOPARTICLES AND USES THEREOF” (CELLO THERAPEUTICS, INC., priority 2020, published 2023).

How the values were obtained:
[1] = test system: MC38 murine colon adenocarcinoma; experiment: Therapeutic efficacy in combination with doxorubicin in MC38 model; format: in vivo, C57BL/6 mice
Method: Therapeutic efficacy of PNP-R848 in combination with chemotherapy was also assessed (FIG. 8). […] Despite some promising initial results, all mice treated with doxorubicin, both with or without PNP-R848, succumbed after re-challenge with a 3-fold higher dose of cancer cells.
Therapeutic efficacy in combination with doxorubicin. Mice were implanted with 1 × 10^6 MC38 cells subcutaneously into the right flank, which were allowed to grow to an average size of ~30-40 mm^3. The mice received intratumoral treatments every other day for a total of 3 times. The treatment groups included: 8% sucrose (n = 6), free doxorubicin (n = 6), and doxorubicin + PNP-R848 (n = 6). Mice received 63 µg of doxorubicin and 15 µg of R848 per dose. For the combination treatment, doxorubicin and PNP-R848 were mixed pre-administration and the animal received one intratumoral injection containing both. Tumor growth and mouse weight were monitored every other day. Progression-free survival was defined as tumor volume < 200 mm^3. All the mice that rejected the initial MC38 inoculum were re-challenged subcutaneously using 3 × 10^6 MC38 cells on day 56 after the start of the first treatment. Five naive C57BL/6 mice that received the same MC38 tumor cell challenge were used as controls to verify tumorigenicity.

[2] = test system: MC38 murine colon adenocarcinoma; experiment: Therapeutic efficacy in a murine MC38 tumor model (15 µg and reduced 6 µg R848 dosage); format: in vivo, C57BL/6 mice; conditions: for long-term survival rate: intratumoral, every other day x3
Method: The antitumor efficacy of PNP-R848 was evaluated using an MC38 murine colon adenocarcinoma model in immunocompetent C57BL/6 mice (FIG. 4a). Each animal received a subcutaneous injection of 1 × 10^6 MC38 cells in the right flank, and the average tumor size was allowed to reach ~30-40 mm^3. At this point, the mice started receiving one of the following treatments: 8% sucrose as a negative control, free R848, PEG-NP loaded with R848 (PEG-NP-R848), or PNP-R848, each at a drug dosage of 15 µg per injection. Treatments were administered intratumorally every other day for a total of 3 times, after which the mice were monitored regularly to assess therapeutic efficacy (FIGS. 4b-e). […] Tumor growth was considerably delayed when treating with either free R848 or PEG-NP-R848, but there was significant disease progression in a majority of the mice by approximately 30 days after the start of treatment. […] Treatment efficacy was also evaluated when reducing the drug dosage by 2.5-fold to 6 µg of R848 per injection (FIG. 6).
In order to determine if the surviving animals had developed long-term immunity against MC38 cancer cells, the mice were re-challenged with a 3-fold higher inoculum subcutaneously into the right flank 56 days after initiation of the first treatment (FIGS. 4c,d). For the survivors that had been treated with either dose of PNP-R848, the second tumor challenge was rejected at a 100% rate. […] The remainder of the surviving animals in the other groups all rejected the re-challenge, with no tumor progression observed at least 100 days after the start of the initial treatment.
Therapeutic efficacy in a murine MC38 tumor model. Mice were implanted with 1 × 10^6 MC38 cells subcutaneously into the right flank, which were allowed to grow to an average size of ~30-40 mm^3. The mice were then intratumorally treated every other day for a total of 3 times. […] Tumor growth and mouse weight were monitored every other day. […]
Therapeutic efficacy in a murine MC38 tumor model at a reduced R848 dosage. […] Tumor growth and mouse weight were monitored every other day. […]

Structure (SMILES)	survival ([1]; 63 µg doxorubicin intratumoral x3)	outcome after re-challenge ([1]; 3-fold higher dose of cancer cells, day 56)	long-term survival rate ([2]; 6 µg R848 per injection) [%]	long-term survival rate ([2]; 15 µg R848 per injection) [%]	overall survival after the tumor re-challenge ([2]; 6-µg dosage, 3-fold higher inoculum, day 56) [%]
COc1cccc2c1C(=O)c1c(O)c3c(c(O)c1C2=O)C[C@@](O)(C(=O)CO)C[C@@H]3O[C@H]1C[C@H](N)[C@H](O)[C@H](C)O1 [doxorubicin]	prolonged survival, the improvement was modest	succumbed			
CCOCc1nc2c(N)nc3ccccc3c2n1CC(C)(C)O [free R848, Resiquimod]			62.5	28.6	37.5
